Six molecules from ChEMBL document CHEMBL1909564, “A modular approach to trim cellular targets in anticancer drug discovery” (Bioorg Med Chem Lett, 2011) can be followed below.

Experiment [1] has as its system SW1573. Briefly: Cell cycle arrest in human SW1573 cells assessed as decrease in cells at S phase at 7 to 21 uM after 24 hrs by flow cytometry. In kind it is functional, cell-based. For orientation: In flow cytometry, cells or beads pass a laser one at a time.
In experiment [2] the test system is SW1573. Briefly: Cell cycle arrest in human SW1573 cells assessed as decrease in cells at G1 phase at 7 to 21 uM after 24 hrs by flow cytometry. It counts as functional, cell-based.
Experiment [3] concerns WiDr. Briefly: Induction of apoptosis in human WiDr cells assessed as increase in sub-G1 DNA content at 7 to 21 uM after 24 hrs by flow cytometry. It counts as functional.
The test system of experiment [4] is T47D. Briefly: Growth inhibition of human T47D cells. It counts as functional.
Experiment [5] has as its system HeLa. Briefly: Growth inhibition of human HeLa cells. It counts as functional.
In experiment [6] the test system is SW1573. Nature of the experiment: Cell cycle arrest in human SW1573 cells assessed as accumulation at G2/M phase after 24 hrs by flow cytometry. In kind it is functional, cell-based.
Experiment [7] concerns HeLa. Nature of the experiment: Induction of apoptosis in human HeLa cells assessed as PARP cleavage at 7 to 21 uM after 24 hrs by immunoblotting. It counts as functional, cell-based. A general note: Immunoblotting shows a protein as a band on a membrane.
For experiment [8], the system named is HBL-100. Nature of the experiment: Growth inhibition of human HBL100 cells. In kind it is functional.
The test system of experiment [9] is HBL-100. Nature of the experiment: Cell cycle arrest in human HBL100 cells assessed as decrease in cells at S phase at 7 to 21 uM after 24 hrs by flow cytometry. It counts as functional, cell-based.
For experiment [10], the system named is T47D. Nature of the experiment: Cell cycle arrest in human T47D cells assessed as decrease in cells at S phase at 7 to 21 uM after 24 hrs by flow cytometry. In kind it is functional, cell-based.
For experiment [11], the system named is WiDr. Briefly: Growth inhibition of human WiDr cells. It counts as functional.
The test system of experiment [12] is HeLa. Briefly: Induction of apoptosis in human HeLa cells assessed as increase in sub-G1 DNA content at 7 to 21 uM after 24 hrs by flow cytometry. It counts as functional.
Experiment [13] has as its system Ishikawa. Briefly: Growth inhibition of human Ishikawa cells. In kind it is functional.
For experiment [14], the system named is HBL-100. Briefly: Induction of apoptosis in human HBL100 cells assessed as increase in sub-G1 DNA content at 7 to 21 uM after 24 hrs by flow cytometry. It counts as functional.
The subject of experiment [15] is T47D. Briefly: Cell cycle arrest in human T47D cells assessed as accumulation at G2/M phase after 24 hrs by flow cytometry. It counts as functional, cell-based.
For experiment [16], the system named is HeLa. Nature of the experiment: Cell cycle arrest in human HeLa cells assessed as accumulation at G2/M phase after 24 hrs by flow cytometry. In kind it is functional, cell-based.
The subject of experiment [17] is HeLa. Briefly: Cell cycle arrest in human HeLa cells assessed as increase in phosphorylated BubR1 level at 7 to 21 uM after 24 hrs by Western blot analysis. It counts as functional, cell-based.
Experiment [18] concerns HeLa. Briefly: Cell cycle arrest in human HeLa cells assessed as phosphorylated histone H3 at ser10 at 21 uM after 24 hrs by flow cytometry (reference value: […]). It counts as functional.
Experiment [19] relates to HeLa. Nature of the experiment: Cell cycle arrest in human HeLa cells assessed as decrease in phosphorylated RB protein at 7 to 21 uM after 24 hrs by Western blot analysis. It counts as functional, cell-based.
For experiment [20], the system named is HeLa. Briefly: Cell cycle arrest in human HeLa cells assessed as decrease in cells at G1 phase at 7 to 21 uM after 24 hrs by flow cytometry. It counts as functional, cell-based.
Experiment [21] concerns T47D. Nature of the experiment: Induction of apoptosis in human T47D cells assessed as increase in sub-G1 DNA content at 7 to 21 uM after 24 hrs by flow cytometry. In kind it is functional.
The subject of experiment [22] is HBL-100. Briefly: Cell cycle arrest in human HBL100 cells assessed as decrease in cells at G1 phase at 7 to 21 uM after 24 hrs by flow cytometry. In kind it is functional, cell-based.
Experiment [23] has as its system HeLa. Nature of the experiment: Cell cycle arrest in human HeLa cells assessed as increase in level of phosphorylated histone H3 at ser10 at 7 to 21 uM after 24 hrs by Western blot analysis. In kind it is functional, cell-based.
Experiment [24] concerns HBL-100. Nature of the experiment: Cell cycle arrest in human HBL100 cells assessed as accumulation at G2/M phase after 24 hrs by flow cytometry. In kind it is functional, cell-based.
Experiment [25] relates to WiDr. Briefly: Cell cycle arrest in human WiDr cells assessed as decrease in cells at S phase at 7 to 21 uM after 24 hrs by flow cytometry. In kind it is functional, cell-based.
Experiment [26] deals with HeLa. Nature of the experiment: Cell cycle arrest in human HeLa cells assessed as effect on cyclin B1 protein at 7 to 21 uM after 24 hrs by Western blot analysis. It counts as functional, cell-based.
Experiment [27] concerns SW1573. Nature of the experiment: Induction of apoptosis in human SW1573 cells assessed as increase in sub-G1 DNA content at 7 to 21 uM after 24 hrs by flow cytometry. It counts as functional.
In experiment [28] the test system is SW1573. Nature of the experiment: Growth inhibition of human SW1573 cells. In kind it is functional.
Experiment [29] deals with A2780. Nature of the experiment: Growth inhibition of human A2780 cells. It counts as functional.
Experiment [30] has as its system HeLa. Nature of the experiment: Cell cycle arrest in human HeLa cells assessed as decrease in cells at S phase at 7 to 21 uM after 24 hrs by flow cytometry. It counts as functional, cell-based.
Experiment [31] relates to T47D. Nature of the experiment: Cell cycle arrest in human T47D cells assessed as decrease in cells at G1 phase at 7 to 21 uM after 24 hrs by flow cytometry. It counts as functional, cell-based.
Experiment [32] deals with WiDr. Briefly: Cell cycle arrest in human WiDr cells assessed as accumulation at G2/M phase after 24 hrs by flow cytometry. In kind it is functional, cell-based.
Experiment [33] has as its system WiDr. Nature of the experiment: Cell cycle arrest in human WiDr cells assessed as decrease in cells at G1 phase at 7 to 21 uM after 24 hrs by flow cytometry. It counts as functional, cell-based.

The source made the active and inactive calls. The calls are words filed in the database; no cut-off is given here. Some results are limits rather than exact numbers.

Usually GI50 stands for the concentration giving 50% growth inhibition. Read a low GI50 as greater sensitivity of the cells. `CNc1ncnc(NCCc2ccccc2)c1N=O`: the outcome in [1], in experiment [2], in experiment [9], in experiment [10], in experiment [17] and in experiment [19] was Active. The outcome in experiment [20], in [22], in [23], in experiment [25], in [30] and in [31] was Active. The result in [33] was Active. Moreover, the Activity is below 8.5% in [3]; “Dose-dependent effect” in experiment [6]; below 8.5% in experiment [12]; below 8.5% in [14]; “Dose-dependent effect” in [15]; “Dose-dependent effect” in experiment [16]. Besides, the Activity in experiment [18] was 15.1%; in experiment [21], below 8.5%; in experiment [24] it was “Dose-dependent effect”; in experiment [27], below 8.5%; in experiment [32], “Dose-dependent effect”. The GI50 stood at 7 µM in experiment [4]; 4.5 µM in experiment [5]; 3.6 µM in [8]; 7.2 µM in [11]; 3.8 µM in experiment [13]; 3.2 µM in [28]. Also, the GI50 in experiment [29] worked out at 3.4 µM. For the same molecule, the outcome in experiment [7] and in experiment [26] was inactive.

Regarding `Cn1c(=O)c(=O)n(O)c2c(NCCN3CCOCC3)ncnc21`, the GI50 in [4], in experiment [5], in experiment [8], in experiment [11], in experiment [13] and in experiment [28] was above 100 µM each time. The GI50 in experiment [29] is above 100 µM.

Regarding `COc1cc([C@@H]2c3cc4c(cc3[C@@H](O[C@@H]3O[C@@H]5CO[C@@H](C)O[C@H]5[C@H](O)[C@H]3O)[C@H]3COC(=O)[C@H]23)OCO4)cc(OC)c1O` [ETOPOSIDE], the GI50 in experiment [4] was 22 µM; in experiment [5], 3 µM; in experiment [8] it was 2.3 µM; in [11], 23 µM; in experiment [13], 11 µM; in experiment [28], 15 µM.

For `CSc1nc(N)c(N=O)c(NCCc2ccccc2)n1`, the GI50 was above 100 µM in [4]; 27 µM in experiment [5]; 12 µM in [8]; above 100 µM in experiment [11]; above 100 µM in [13]; 37 µM in experiment [28]. In addition, the GI50 in [29] is above 100 µM.

Consider `Cn1c(=O)c(=O)n(O)c2c(NCCc3ccccc3)ncnc21`, for which the GI50 in experiment [4] was above 100 µM; in experiment [5], above 100 µM; in experiment [8], 54 µM; in experiment [11], above 100 µM; in experiment [13], above 100 µM; in [28], 59 µM. This molecule also displayed a GI50 in experiment [29] above 100 µM.

On to `CC(=O)O[C@H]1C(=O)[C@@]2(C)[C@H]([C@H](OC(=O)c3ccccc3)[C@]3(O)C[C@H](OC(=O)[C@H](O)[C@@H](NC(=O)c4ccccc4)c4ccccc4)C(C)=C1C3(C)C)[C@]1(OC(C)=O)CO[C@@H]1C[C@@H]2O` [PACLITAXEL], for which the GI50 in [4] turned out to be 0.00015 µM; in experiment [8], 1.7e-05 µM; in experiment [11] it was 0.00022 µM; in experiment [28] it was 0.005 µM; in experiment [29], 0.00027 µM.
